Results: patent publication EP0376518B1, “Phospholipid nucleosides” (ELI LILLY AND COMPANY, priority 1988, dated 1990)

Legend:
Assay type in all cases: in vivo
[1] = tested on: M-5 ovarian carcinoma; experiment: Test 1: M-5 ovarian carcinoma in mice, single dose; conditions: single dose two days after inoculation; for Toxicity (number of animals which exhibited signs of toxicity): group of 10 mice; for Inhibition (percent inhibition of tumor growth): tumors measured 13 days after inoculation
From the text: (§1) Representative compounds of the invention have been tested using murine tumors in female mice to determine their antineoplastic efficacy. Several different tumor systems have been used in these tests, and the compounds have been administered on a number of different dosage schedules. In general, all the tests were started by inoculating female mice with the tumor, subcutaneously. After some number of days delay, intraperitoneal administration of the test compound was begun. Each treatment group consisted of 10 mice, and untreated control groups were included in all experiments. At the completion of the treatment period, the tumors of the control and the treated mice were measured and the mass of them calculated from the measurements. The data are reported here as percent inhibition of tumor growth, based on the tumors of the untreated control mice.
The tumor in this test was M-5 ovarian carcinoma; the compounds were administered as a single dose, two days after inoculation, and the tumors were measured 13 days after inoculation.

[2] = tested on: M-5 ovarian carcinoma; experiment: Test 2: M-5 ovarian carcinoma in mice, three doses; conditions: for Toxicity (number of animals which exhibited signs of toxicity): group of 10 mice; for Inhibition (percent inhibition of tumor growth): tumors measured day 15
From the text: as §1
The compound of Example 2 was tested against M-5 ovarian carcinoma. Three doses were administered on days 5, 10 and 13 after inoculation, and the tumors were measured on day 15.

[3] = tested on: M-5 ovarian carcinoma; experiment: Test 3: M-5 ovarian carcinoma in mice, daily dose; conditions: for Toxicity (number of animals which exhibited signs of toxicity): group of 10 mice; for Inhibition (percent inhibition of tumor growth): tumors measured day 15
From the text: as §1
The compound of Example 2 was tested against M-5 ovarian carcinoma, giving a daily dose from day 5 to day 14 after inoculation. The tumors were measured on day 15.

[4] = tested on: 6C3HED lymphosarcoma; experiment: Test 4: 6C3HED lymphosarcoma in mice; conditions: for Toxicity (number of animals which exhibited signs of toxicity): group of 10 mice; for Inhibition (percent inhibition of tumor growth): tumors measured day 10
From the text: as §1
The compound of Example 2 was tested against 6C3HED lymphosarcoma, giving a dose on days 1, 5 and 9 after inoculation, and measuring the tumors on day 10.

[5] = tested on: colon carcinoma 26; experiment: Test 5: colon carcinoma 26 in mice; conditions: for Toxicity (number of animals which exhibited signs of toxicity): group of 10 mice; for Inhibition (percent inhibition of tumor growth): tumors measured day 13
From the text: as §1
The compound of Example 2 was tested against colon carcinoma 26, giving doses on days 3, 8 and 11 after inoculation, and measuring the tumors on day 13.

[6] = tested on: X-5563 plasma cell myeloma; experiment: Test 6: X-5563 plasma cell myeloma in mice; conditions: for Toxicity (number of animals which exhibited signs of toxicity): group of 10 mice; for Inhibition (percent inhibition of tumor growth): tumors measured day 11
From the text: as §1
The compound of Example 2 was tested against X-5563 plasma cell myeloma, giving doses on days 1, 5 and 9 after inoculation and measuring the tumors on day 11.

[7] = tested on: C3H mammary adenocarcinoma; experiment: Test 7: C3H mammary adenocarcinoma in mice; conditions: for Toxicity (number of animals which exhibited signs of toxicity): group of 10 mice; for Inhibition (percent inhibition of tumor growth): tumors measured day 11
From the text: as §1
The compound of Example 2 was tested against C3H mammary adenocarcinoma, giving does on days 1, 5 and 9 after inoculation and measuring the tumors on day 11.

[8] = tested on: Madison lung carcinoma; experiment: Test 8: Madison lung carcinoma in mice; conditions: for Toxicity (number of animals which exhibited signs of toxicity): group of 10 mice; for Inhibition (percent inhibition of tumor growth): tumors measured day 11
From the text: as §1
The compound of Example 2 was tested against Madison lung carcinoma, giving doses on days 1, 5 and 9 after inoculation and measuring the tumors on day 11.

[9] = tested on: Lewis lung carcinoma; experiment: Test 9: Lewis lung carcinoma in mice; conditions: for Toxicity (number of animals which exhibited signs of toxicity): group of 10 mice; for Inhibition (percent inhibition of tumor growth): tumors measured day 11
From the text: as §1
The compound of Example 2 was tested against Lewis lung carcinoma, giving doses on days 1, 5 and 9 after inoculation and measuring the tumors on day 11.

[10] = 1.8 mg/kg intraperitoneal on days 5, 10 and 13 after inoculation
[11] = 3.8 mg/kg intraperitoneal on days 5, 10 and 13 after inoculation
[12] = 7.5 mg/kg intraperitoneal on days 5, 10 and 13 after inoculation
[13] = 15 mg/kg intraperitoneal on days 5, 10 and 13 after inoculation
[14] = 30 mg/kg intraperitoneal on days 5, 10 and 13 after inoculation
[15] = 0.6 mg/kg intraperitoneal daily from day 5 to day 14 after inoculation
[16] = 1.2 mg/kg intraperitoneal daily from day 5 to day 14 after inoculation
[17] = 2.5 mg/kg intraperitoneal daily from day 5 to day 14 after inoculation
[18] = 5 mg/kg intraperitoneal daily from day 5 to day 14 after inoculation
[19] = 1.8 mg/kg intraperitoneal on days 1, 5 and 9 after inoculation
[20] = 3.8 mg/kg intraperitoneal on days 1, 5 and 9 after inoculation
[21] = 7.5 mg/kg intraperitoneal on days 1, 5 and 9 after inoculation
[22] = 15 mg/kg intraperitoneal on days 1, 5 and 9 after inoculation
[23] = 30 mg/kg intraperitoneal on days 1, 5 and 9 after inoculation
[24] = 1.8 mg/kg intraperitoneal on days 3, 8 and 11 after inoculation
[25] = 3.8 mg/kg intraperitoneal on days 3, 8 and 11 after inoculation
[26] = 7.5 mg/kg intraperitoneal on days 3, 8 and 11 after inoculation
[27] = 15 mg/kg intraperitoneal on days 3, 8 and 11 after inoculation
[28] = 30 mg/kg intraperitoneal on days 3, 8 and 11 after inoculation

CCCCCCCCCCCCCCCC(=O)OC[C@H](COP(=O)(O)OP(=O)(O)OC[C@H]1O[C@@H](n2ccc(N)nc2=O)C(F)(F)[C@@H]1O)OC(=O)CCCCCCCCCCCCCCC [Example 2]
Toxicity (number of animals which exhibited signs of toxicity) ([1]; 25 mg/kg intraperitoneal): 0/10 | Inhibition (percent inhibition of tumor growth) ([1]; 25 mg/kg intraperitoneal): 72% | Toxicity (number of animals which exhibited signs of toxicity) ([1]; 50 mg/kg intraperitoneal): 4/10 | Inhibition (percent inhibition of tumor growth) ([1]; 50 mg/kg intraperitoneal): 87% | Toxicity (number of animals which exhibited signs of toxicity) [2, 10]: 0/10 | Inhibition (percent inhibition of tumor growth) [2, 10]: 22% | Toxicity (number of animals which exhibited signs of toxicity) [2, 11]: 0/10 | Inhibition (percent inhibition of tumor growth) [2, 11]: 55% | Toxicity (number of animals which exhibited signs of toxicity) [2, 12]: 0/10 | Inhibition (percent inhibition of tumor growth) [2, 12]: 61% | Toxicity (number of animals which exhibited signs of toxicity) [2, 13]: 0/10 | Inhibition (percent inhibition of tumor growth) [2, 13]: 92% | Toxicity (number of animals which exhibited signs of toxicity) [2, 14]: 2/10 | Inhibition (percent inhibition of tumor growth) [2, 14]: 99% | Toxicity (number of animals which exhibited signs of toxicity) [3, 15]: 0/10 | Inhibition (percent inhibition of tumor growth) [3, 15]: 42% | Toxicity (number of animals which exhibited signs of toxicity) [3, 16]: 0/10 | Inhibition (percent inhibition of tumor growth) [3, 16]: 58% | Toxicity (number of animals which exhibited signs of toxicity) [3, 17]: 0/10 | Inhibition (percent inhibition of tumor growth) [3, 17]: 69% | Toxicity (number of animals which exhibited signs of toxicity) [3, 18]: 0/10 | Inhibition (percent inhibition of tumor growth) [3, 18]: 100% | Toxicity (number of animals which exhibited signs of toxicity) ([3]; 10 mg/kg intraperitoneal daily from day 5 to day 14 after inoculation): 10/10 | Toxicity (number of animals which exhibited signs of toxicity) [4, 19]: 0/10 | Inhibition (percent inhibition of tumor growth) [4, 19]: 21% | Toxicity (number of animals which exhibited signs of toxicity) [4, 20]: 0/10 | Inhibition (percent inhibition of tumor growth) [4, 20]: 32% | Toxicity (number of animals which exhibited signs of toxicity) [4, 21]: 0/10 | Inhibition (percent inhibition of tumor growth) [4, 21]: 47% | Toxicity (number of animals which exhibited signs of toxicity) [4, 22]: 0/10 | Inhibition (percent inhibition of tumor growth) [4, 22]: 60% | Toxicity (number of animals which exhibited signs of toxicity) [4, 23]: 7/10 | Inhibition (percent inhibition of tumor growth) [4, 23]: 98% | Toxicity (number of animals which exhibited signs of toxicity) [5, 24]: 0/10 | Inhibition (percent inhibition of tumor growth) [5, 24]: 0% | Toxicity (number of animals which exhibited signs of toxicity) [5, 25]: 0/10 | Inhibition (percent inhibition of tumor growth) [5, 25]: 21% | Toxicity (number of animals which exhibited signs of toxicity) [5, 26]: 0/10 | Inhibition (percent inhibition of tumor growth) [5, 26]: 28% | Toxicity (number of animals which exhibited signs of toxicity) [5, 27]: 0/10 | Inhibition (percent inhibition of tumor growth) [5, 27]: 66% | Toxicity (number of animals which exhibited signs of toxicity) [5, 28]: 8/10 | Inhibition (percent inhibition of tumor growth) [5, 28]: 89% | Toxicity (number of animals which exhibited signs of toxicity) [6, 19]: 0/10 | Inhibition (percent inhibition of tumor growth) [6, 19]: 0% | Toxicity (number of animals which exhibited signs of toxicity) [6, 20]: 0/10 | Inhibition (percent inhibition of tumor growth) [6, 20]: 2% | Toxicity (number of animals which exhibited signs of toxicity) [6, 21]: 0/10 | Inhibition (percent inhibition of tumor growth) [6, 21]: 68% | Toxicity (number of animals which exhibited signs of toxicity) [6, 22]: 1/10 | Inhibition (percent inhibition of tumor growth) [6, 22]: 84% | Toxicity (number of animals which exhibited signs of toxicity) [6, 23]: 9/10 | Inhibition (percent inhibition of tumor growth) [6, 23]: 100% | Toxicity (number of animals which exhibited signs of toxicity) [7, 19]: 0/10 | Inhibition (percent inhibition of tumor growth) [7, 19]: 0% | Toxicity (number of animals which exhibited signs of toxicity) [7, 20]: 0/10 | Inhibition (percent inhibition of tumor growth) [7, 20]: 0% | Toxicity (number of animals which exhibited signs of toxicity) [7, 21]: 0/10 | Inhibition (percent inhibition of tumor growth) [7, 21]: 22% | Toxicity (number of animals which exhibited signs of toxicity) [7, 22]: 0/10 | Inhibition (percent inhibition of tumor growth) [7, 22]: 60% | Toxicity (number of animals which exhibited signs of toxicity) [7, 23]: 6/10 | Inhibition (percent inhibition of tumor growth) [7, 23]: 100% | Toxicity (number of animals which exhibited signs of toxicity) [8, 19]: 0/10 | Inhibition (percent inhibition of tumor growth) [8, 19]: 12% | Toxicity (number of animals which exhibited signs of toxicity) [8, 20]: 0/10 | Inhibition (percent inhibition of tumor growth) [8, 20]: 18% | Toxicity (number of animals which exhibited signs of toxicity) [8, 21]: 0/10 | Inhibition (percent inhibition of tumor growth) [8, 21]: 33% | Toxicity (number of animals which exhibited signs of toxicity) [8, 22]: 0/10 | Inhibition (percent inhibition of tumor growth) [8, 22]: 68% | Toxicity (number of animals which exhibited signs of toxicity) [8, 23]: 4/10 | Inhibition (percent inhibition of tumor growth) [8, 23]: 76% | Toxicity (number of animals which exhibited signs of toxicity) [9, 19]: 0/10 | Inhibition (percent inhibition of tumor growth) [9, 19]: 6% | Toxicity (number of animals which exhibited signs of toxicity) [9, 20]: 0/10 | Inhibition (percent inhibition of tumor growth) [9, 20]: 0% | Toxicity (number of animals which exhibited signs of toxicity) [9, 21]: 0/10 | Inhibition (percent inhibition of tumor growth) [9, 21]: 0% | Toxicity (number of animals which exhibited signs of toxicity) [9, 22]: 0/10 | Inhibition (percent inhibition of tumor growth) [9, 22]: 0% | Toxicity (number of animals which exhibited signs of toxicity) [9, 23]: 4/10 | Inhibition (percent inhibition of tumor growth) [9, 23]: 41%
